Measurements from the supplement of paper PMC7840683.
± gives the standard deviation of the averaged measurements.

System: HepaRG
Assay: LDH release cytotoxicity, % of total lysis control; higher = more cytotoxic
Conditions: 48 h
Outline: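 Single-lot HepaRG cells on collagen I-coated 96-well plates were exposed for 48 h in duplicate, in serum-free induction medium with 0.5% DMSO, to eight-point half-log series (test chemicals top 100 µM). Total lysis wells received 0.1% Triton X, and LDH leakage into 50 µL spent medium was read as resorufin fluorescence (CytoTox-ONE, Tecan Safire). Percent cytotoxicity was normalized to on-plate vehicle and total lysis controls and averaged over the duplicates.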

Clc1cccc(Cl)c1Cl [1,2,3-Trichlorobenzene]
Conditions	LDH release cytotoxicity [%]
0.031623 µM	-0.151 ± 0.71
0.1 µM	-2.59 ± 0.72
0.316228 µM	-3.02 ± 0.044
1 µM	-2.67 ± 0.31
3.16228 µM	-3.67 ± 0.82
10 µM	-2.75 ± 0.99
31.6228 µM	-2 ± 0.85
100 µM	-0.185 ± 0.67

ClCC(Cl)CCl [1,2,3-Trichloropropane]
Conditions	LDH release cytotoxicity [%]
0.03162 µM	-1.72 ± 1.1
0.1 µM	-1.57 ± 0.41
0.3162278 µM	-1.6 ± 0.79
1 µM	-0.683 ± 0.4
3.16228 µM	-0.233 ± 1.1
10 µM	-1.91 ± 0.066
31.6228 µM	-1.01 ± 0.093
100 µM	0.236 ± 0.36

Clc1cc(Cl)c(Cl)cc1Cl [1,2,4,5-Tetrachlorobenzene]
Conditions	LDH release cytotoxicity [%]
0.03162 µM	-1.15 ± 0.52
0.1 µM	-1.29 ± 0.64
0.3162278 µM	-0.238 ± 1.4
1 µM	-1.08 ± 0.043
3.16228 µM	-0.932 ± 0.35
10 µM	-0.175 ± 0.34
31.6228 µM	-0.116 ± 0.54
100 µM	1.14 ± 0.66

Clc1ccc(Cl)c(Cl)c1 [1,2,4-Trichlorobenzene]
Conditions	LDH release cytotoxicity [%]
0.03162 µM	-0.83 ± 0.22
0.1 µM	-0.799 ± 0.65
0.3162278 µM	-1.05 ± 0.33
1 µM	-0.848 ± 0.19
3.16228 µM	-1.46 ± 0.75
10 µM	-0.626 ± 0.011
31.6228 µM	-0.776 ± 0.65
100 µM	-0.785 ± 0.46

Cc1ccc(C)c(C)c1 [1,2,4-Trimethylbenzene]
Conditions	LDH release cytotoxicity [%]
0.03162 µM	-1.1 ± 0.13
0.1 µM	-1.09 ± 0.14
0.3162278 µM	-1.49 ± 0.63
1 µM	-1.38 ± 0.46
3.16228 µM	-0.646 ± 0.4
10 µM	-0.854 ± 0.4
31.6228 µM	0.161 ± 0.23
100 µM	1.55 ± 0.46

O=Cc1ccccc1C=O [1,2-Benzenedicarboxaldehyde]
Conditions	LDH release cytotoxicity [%]
0.03162 µM	-1.01 ± 0.34
0.1 µM	-0.945 ± 0.21
0.3162278 µM	-1.43 ± 0.23
1 µM	-0.52 ± 1.3
3.16228 µM	-0.768 ± 0.29
10 µM	-0.0584 ± 0.28
31.6228 µM	1.36 ± 0.23
100 µM	7.96 ± 1.3

O=c1[nH]sc2ccccc12 [1,2-Benzisothiazolin-3-one]
Conditions	LDH release cytotoxicity [%]
0.0327296 µM	-0.0461 ± 1.4
0.1035 µM	-0.556 ± 0.24
0.327296 µM	-0.331 ± 0.21
1.035 µM	-0.299 ± 0.034
3.27296 µM	-0.612 ± 0.23
10.35 µM	-0.701 ± 0.032
32.729574 µM	0.567 ± 0.56
103.5 µM	2.85 ± 2.2

Clc1ccccc1Cl [1,2-Dichlorobenzene]
Conditions	LDH release cytotoxicity [%]
0.03162 µM	-1.68 ± 0.72
0.1 µM	-1.12 ± 0.22
0.3162278 µM	-2 ± 0.56
1 µM	-1.81 ± 0.094
3.16228 µM	-1.83 ± 0.1
10 µM	-1.2 ± 0.57
31.6228 µM	-1.06 ± 0.67
100 µM	-0.133 ± 0.15

Cc1cccc([N+](=O)[O-])c1C [1,2-Dimethyl-3-nitrobenzene]
Conditions	LDH release cytotoxicity [%]
0.03162 µM	0.0499 ± 0.58
0.1 µM	-0.56 ± 0.35
0.3162278 µM	-0.0544 ± 1
1 µM	0.0899 ± 0.093
3.16228 µM	-0.155 ± 0.3
10 µM	2.03 ± 0.56
31.6228 µM	1.1 ± 0.079
100 µM	1.87 ± 0.3

Cc1ccc([N+](=O)[O-])cc1C [1,2-Dimethyl-4-nitrobenzene]
Conditions	LDH release cytotoxicity [%]
0.03162 µM	-1.16 ± 0.66
0.1 µM	-1.81 ± 0.53
0.3162278 µM	-1.44 ± 0.14
1 µM	-1.1 ± 0.27
3.16228 µM	-1.56 ± 0.13
10 µM	-1.07 ± 0.013
31.6228 µM	-0.524 ± 0.73
100 µM	0.459 ± 1.3

c1ccc(NNc2ccccc2)cc1 [1,2-Diphenylhydrazine]
Conditions	LDH release cytotoxicity [%]
0.03162 µM	-1.61 ± 1.4
0.1 µM	-1.5 ± 0.65
0.3162278 µM	-1.76 ± 0.62
1 µM	-2.09 ± 1.2
3.16228 µM	-1.82 ± 0.17
10 µM	-1.49 ± 0.079
31.6228 µM	-1.72 ± 0.59
100 µM	-0.591 ± 1

Nc1ccccc1N [1,2-Phenylenediamine]
Conditions	LDH release cytotoxicity [%]
0.03162 µM	-3.74 ± 0.12
0.1 µM	-3.27 ± 0.9
0.3162278 µM	-2.8 ± 0.61
1 µM	-1.88 ± 0.13
3.16228 µM	-3.1 ± 0.2
10 µM	-2.74 ± 0.21
31.6228 µM	-2.23 ± 1.2
100 µM	-1.05 ± 2.2

CC(O)CO (configuration not stated) [1,2-Propylene glycol]
Conditions	LDH release cytotoxicity [%]
0.03162 µM	-1.3 ± 0.42
0.1 µM	-0.939 ± 1.1
0.3162278 µM	-1.49 ± 0.33
1 µM	-1.94 ± 0.42
3.16228 µM	-1.55 ± 0.095
10 µM	-1.06 ± 0.055
31.6228 µM	-1.08 ± 0.23
100 µM	0.548 ± 0.21

Cc1cc(C)cc(C)c1 [1,3,5-Trimethylbenzene]
Conditions	LDH release cytotoxicity [%]
0.03162 µM	-1.84 ± 0.57
0.1 µM	-1.84 ± 0.86
0.3162278 µM	-2.21 ± 0.96
1 µM	-2.65 ± 0.24
3.16228 µM	-2.52 ± 0.57
10 µM	-1.42 ± 0.71
31.6228 µM	-0.727 ± 0.4
100 µM	1.41 ± 0.37

Nc1cccc(N)c1 [1,3-Benzenediamine]
Conditions	LDH release cytotoxicity [%]
0.03162 µM	-1.18 ± 0.7
0.1 µM	-2.11 ± 0.27
0.3162278 µM	-1.93 ± 0.12
1 µM	-1.36 ± 0.52
3.16228 µM	-1 ± 0.48
10 µM	-0.806 ± 0.47
31.6228 µM	-1.17 ± 0.023
100 µM	0.323 ± 1.3

O=C(O)c1cccc(C(=O)O)c1 [1,3-Benzenedicarboxylic acid]
Conditions	LDH release cytotoxicity [%]
0.03162 µM	-2.12 ± 0.44
0.1 µM	-1.69 ± 0.34
0.3162278 µM	-1.63 ± 0.21
1 µM	-2.28 ± 0.37
3.16228 µM	-2.24 ± 0.28
10 µM	-1.69 ± 0.35
31.6228 µM	0.0627 ± 0.62
100 µM	4.89 ± 0.58

CC(O)CCO (configuration not stated) [1,3-Butanediol]
Conditions	LDH release cytotoxicity [%]
0.03162 µM	-2.25 ± 1.4
0.1 µM	-2.15 ± 1.1
0.3162278 µM	-2.36 ± 0.29
1 µM	-2.52 ± 0.74
3.16228 µM	-2.18 ± 0.92
10 µM	-2.33 ± 0.35
31.6228 µM	-1.67 ± 0.8
100 µM	-0.781 ± 0.99

CC1(C)C(=O)N(Br)C(=O)N1Br [1,3-Dibromo-5,5-dimethylhydantoin]
Conditions	LDH release cytotoxicity [%]
0.03162 µM	-0.925 ± 1.3
0.1 µM	-0.284 ± 1.3
0.3162278 µM	-0.732 ± 0.032
1 µM	-1.11 ± 0.88
3.16228 µM	-0.698 ± 0.06
10 µM	0.338 ± 1.5
31.6228 µM	-0.0587 ± 0.89
100 µM	0.735 ± 0.36

OC(CCl)CCl [1,3-Dichloro-2-propanol]
Conditions	LDH release cytotoxicity [%]
0.03162 µM	-0.194 ± 0.51
0.1 µM	-0.771 ± 0.2
0.3162278 µM	-1.03 ± 0.57
1 µM	-0.871 ± 0.15
3.16228 µM	-0.223 ± 0.23
10 µM	-0.32 ± 0.6
31.6228 µM	0.161 ± 0.38
100 µM	-0.702 ± 0.99

CC1(C)C(=O)N(Cl)C(=O)N1Cl [1,3-Dichloro-5,5-dimethylhydantoin]
Conditions	LDH release cytotoxicity [%]
0.03162 µM	0.112 ± 0.0031
0.1 µM	-1.567 ± 0.014
0.3162278 µM	-0.979 ± 0.12
1 µM	-0.604 ± 0.23
3.16228 µM	-0.443 ± 0.098
10 µM	-0.243 ± 0.15
31.6228 µM	1.54 ± 2
100 µM	0.626 ± 0.89

Clc1cccc(Cl)c1 [1,3-Dichlorobenzene]
Conditions	LDH release cytotoxicity [%]
0.03162 µM	-0.441 ± 1.9
0.1 µM	-1.62 ± 0.022
0.3162278 µM	-0.906 ± 0.34
1 µM	-1.05 ± 0.054
3.16228 µM	-1.07 ± 0.023
10 µM	0.199 ± 1.1
31.6228 µM	3.191 ± 0.028
100 µM	25.9 ± 0.28

CC(C)c1cccc(C(C)C)c1 [1,3-Diisopropylbenzene]
Conditions	LDH release cytotoxicity [%]
0.031623 µM	-1.99 ± 0.73
0.1 µM	-2.55 ± 1.5
0.316228 µM	-2.42 ± 1.3
1 µM	-4.25 ± 0.7
3.16228 µM	-3.82 ± 0.32
10 µM	-2.51 ± 1.5
31.6228 µM	-1.16 ± 0.34
100 µM	0.451 ± 1.2

N=C(Nc1ccccc1)Nc1ccccc1 [1,3-Diphenylguanidine]
Conditions	LDH release cytotoxicity [%]
0.03162 µM	-0.803 ± 1
0.1 µM	-2.15 ± 0.34
0.3162278 µM	-1.51 ± 0.42
1 µM	-1.87 ± 1.8
3.16228 µM	-1.59 ± 0.016
10 µM	-1.1 ± 0.56
31.6228 µM	-1.1 ± 0.68
100 µM	0.505 ± 0.92

O=S1(=O)CCCO1 [1,3-Propane sultone]
Conditions	LDH release cytotoxicity [%]
0.03162 µM	-0.997 ± 0.28
0.1 µM	-2.2 ± 0.45
0.3162278 µM	-1.51 ± 0.54
1 µM	-1.38 ± 0.031
3.16228 µM	-1.5 ± 0.31
10 µM	-1.53 ± 0.35
31.6228 µM	-0.817 ± 0.19
100 µM	-0.0166 ± 1.5

Clc1ccc(Cl)cc1 [1,4-Dichlorobenzene]
Conditions	LDH release cytotoxicity [%]
0.03162 µM	-0.401 ± 1.1
0.1 µM	-1.22 ± 0.19
0.3162278 µM	-1.55 ± 0.4
1 µM	-0.354 ± 1.7
3.16228 µM	-0.734 ± 0.3
10 µM	-0.586 ± 1.3
31.6228 µM	0.224 ± 1.5
100 µM	5.07 ± 3.4

C1=CCCC=CCCC=CCC1 [1,5,9-Cyclododecatriene]
Conditions	LDH release cytotoxicity [%]
0.032888 µM	0.325 ± 0.27
0.104 µM	-1.08 ± 0.16
0.328877 µM	-2.13 ± 1.5
1.04 µM	-1.59 ± 0.41
3.28877 µM	-1.09 ± 0.33
10.4 µM	-1.273 ± 0.012
32.8877 µM	-1.4 ± 0.08
104 µM	0.633 ± 0.4

Nc1cccc2c(N)cccc12 [1,5-Naphthalenediamine]
Conditions	LDH release cytotoxicity [%]
0.03162 µM	-0.228 ± 0.2
0.1 µM	-1.23 ± 0.16
0.3162278 µM	-1.58 ± 0.12
1 µM	-2.39 ± 0.034
3.16228 µM	-1.95 ± 0.3
10 µM	-1.12 ± 0.45
31.6228 µM	-1.51 ± 0.7
100 µM	0.44 ± 0.38

O=C=NCCCCCCN=C=O [1,6-Diisocyanatohexane]
Conditions	LDH release cytotoxicity [%]
0.03162 µM	-1.38 ± 0.69
0.1 µM	-0.852 ± 1.4
0.3162278 µM	0.3 ± 0.43
1 µM	-0.656 ± 0.29
3.16228 µM	0.0821 ± 0.041
10 µM	0.975 ± 0.72
31.6228 µM	0.748 ± 0.51
100 µM	0.578 ± 0.58

Oc1ccccc1O [1,2-Benzenediol]
Conditions	LDH release cytotoxicity [%]
0.03162 µM	-1.86 ± 1.3
0.1 µM	-1.713 ± 0.01
0.3162278 µM	-1.94 ± 0.18
1 µM	-2.41 ± 0.4
3.16228 µM	-2.9 ± 0.69
10 µM	-2.31 ± 0.29
31.6228 µM	-1.42 ± 0.88
100 µM	-0.0267 ± 0.61
